Several values for one entry are separate records, joined by “and”; a condition that tells them apart may be missing. Equal values may be shown once. Toxic doses and inconclusive results are not listed. How the source made its calls: active means survival T/C of 150% or more; inactive means T/C below 125% in these data.
Tested on: P388 leukemia ip, CD2F1 mice, survival T/C
Assay: NCI In Vivo Anticancer Drug Screen. Data for tumor model P388 Leukemia (intraperitoneal) in CD2F1 (CDF1) mice
Conditions: endpoint: median survival time, higher = longer survival
How it was run: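 Mice carrying the transplanted tumor received test compound or vehicle. Survival was recorded in each group, and the value is the treated-group measurement divided by that of the vehicle-treated control group.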

[1] = dose: 60.0 mg/kg/injection, schedule: Q01DX005 (ip), vehicle: saline with Tween-80
[2] = dose: 120.0 mg/kg/injection, schedule: Q01DX005 (ip), vehicle: saline with Tween-80
[3] = dose: 240.0 mg/kg/injection, schedule: Q01DX005 (ip), vehicle: saline with Tween-80
[4] = dose: 100.0 mg/kg/injection, schedule: Q01DX001 (ip), vehicle: saline with Tween-80
[5] = dose: 200.0 mg/kg/injection, schedule: Q01DX001 (ip), vehicle: saline with Tween-80
[6] = dose: 400.0 mg/kg/injection, schedule: Q01DX001 (ip), vehicle: saline with Tween-80
[7] = dose: 100.0 mg/kg/injection, schedule: Q01DX009 (ip), vehicle: saline with Tween-80
[8] = dose: 200.0 mg/kg/injection, schedule: Q01DX009 (ip), vehicle: saline with Tween-80
[9] = dose: 50.0 mg/kg/injection, schedule: Q01DX009 (ip), vehicle: saline
[10] = dose: 100.0 mg/kg/injection, schedule: Q01DX009 (ip), vehicle: saline
[11] = dose: 200.0 mg/kg/injection, schedule: Q01DX009 (ip), vehicle: saline
[12] = dose: 50.0 mg/kg/injection, schedule: Q01DX005 (ip), vehicle: saline
[13] = dose: 100.0 mg/kg/injection, schedule: Q01DX005 (ip), vehicle: saline
[14] = dose: 200.0 mg/kg/injection, schedule: Q01DX005 (ip), vehicle: saline
[15] = dose: 50.0 mg/kg/injection, schedule: Q01DX009 (ip), vehicle: Klucel (hydroxypropylcellulose) (HPC)
[16] = dose: 100.0 mg/kg/injection, schedule: Q01DX009 (ip), vehicle: Klucel (hydroxypropylcellulose) (HPC)
[17] = dose: 200.0 mg/kg/injection, schedule: Q01DX009 (ip), vehicle: Klucel (hydroxypropylcellulose) (HPC)
[18] = dose: 60.0 mg/kg/injection, schedule: Q01DX005 (ip), vehicle: Klucel (hydroxypropylcellulose) (HPC)
[19] = dose: 120.0 mg/kg/injection, schedule: Q01DX005 (ip), vehicle: Klucel (hydroxypropylcellulose) (HPC)
[20] = dose: 240.0 mg/kg/injection, schedule: Q01DX005 (ip), vehicle: Klucel (hydroxypropylcellulose) (HPC)
[21] = dose: 30.0 mg/kg/injection, schedule: Q01DX005 (ip), vehicle: saline with Tween-80
[22] = dose: 50.0 mg/kg/injection, schedule: Q01DX005 (ip), vehicle: saline with Tween-80
[23] = dose: 100.0 mg/kg/injection, schedule: Q01DX005 (ip), vehicle: saline with Tween-80
[24] = dose: 200.0 mg/kg/injection, schedule: Q01DX005 (ip), vehicle: saline with Tween-80

Measured: T/C

Cc1cc2nc(SCC(N)=O)nn2c(C)n1
inactive: [1] 100 % of control | [2] 100 % of control | [3] 99 % of control

COC(=O)Cn1/c(=N\N=C(/C)c2ccccc2)sc2ccccc21
inactive: [4] 102 % of control | [5] 99 % of control | [6] 99 % of control

CCOC(=O)CC1Cc2ccc3ccc(OC)cc3c2C1=O (stereo not given)
inactive: dose: 12.5 mg/kg/injection, schedule: Q01DX009 (ip), vehicle: distilled water + Tween-80 102 % of control | dose: 25.0 mg/kg/injection, schedule: Q01DX009 (ip), vehicle: distilled water + Tween-80 100 % of control | dose: 50.0 mg/kg/injection, schedule: Q01DX009 (ip), vehicle: distilled water + Tween-80 95 % of control | dose: 100.0 mg/kg/injection, schedule: Q01DX009 (ip), vehicle: distilled water + Tween-80 97 % of control | dose: 200.0 mg/kg/injection, schedule: Q01DX009 (ip), vehicle: distilled water + Tween-80 93 % of control

NC(CCl)=NCc1ccccc1
inactive: dose: 7.5 mg/kg/injection, schedule: Q01DX005 (ip), vehicle: saline 99 % of control | dose: 15.0 mg/kg/injection, schedule: Q01DX005 (ip), vehicle: saline 96 % of control | dose: 30.0 mg/kg/injection, schedule: Q01DX005 (ip), vehicle: saline 111 % of control

CCCn1c(O)c(C=N)c(=O)[nH]c1=O
inactive: [7] 87 % of control | [8] 95 % of control

Nc1cc2ncccc2c2ccccc12
inactive: [9] 100 % of control and 98 % of control | [10] 109 % of control | [11] 106 % of control and 89 % of control

CC1=NN(C(=O)CC(=O)Nc2ccc(C(=O)O)cc2)C(=O)C1N=Nc1ccccc1 (stereo not given)
inactive: [12] 105 % of control | [13] 102 % of control | [14] 108 % of control

N#CC/C(=N\Nc1ccc([N+](=O)[O-])cc1[N+](=O)[O-])c1ccccc1
inactive: dose: 100.0 mg/kg/injection, schedule: Q04DX003 (ip), vehicle: saline with Tween-80 100 % of control | dose: 200.0 mg/kg/injection, schedule: Q04DX003 (ip), vehicle: saline with Tween-80 90 % of control | dose: 400.0 mg/kg/injection, schedule: Q04DX003 (ip), vehicle: saline with Tween-80 95 % of control

CCCn1c(Cl)c(/C=N\Nc2cccc([N+](=O)[O-])c2)c2ccccc21
inactive: [4] 91 % of control | [5] 92 % of control | [6] 91 % of control

O=C1N/C(=N/OCc2ccccc2)C(F)C(NOCc2ccccc2)N1 (stereo not given)
inactive: [15] 96 % of control | [16] 101 % of control | [17] 97 % of control

Nc1ncnc2c1ncn2CC(O)CCl (stereo not given)
inactive: dose: 50.0 mg/kg/injection, schedule: Q01DX005 (ip), vehicle: Klucel (hydroxypropylcellulose) (HPC) 100 % of control | dose: 100.0 mg/kg/injection, schedule: Q01DX005 (ip), vehicle: Klucel (hydroxypropylcellulose) (HPC) 99 % of control | dose: 200.0 mg/kg/injection, schedule: Q01DX005 (ip), vehicle: Klucel (hydroxypropylcellulose) (HPC) 100 % of control

CC/C(=N\NS(=O)(=O)c1ccc(C)cc1)c1ccc(Br)c(Br)c1
inactive: [9] 96 % of control | [10] 100 % of control | [11] 92 % of control

Nc1ncncc1C(C1=C(O)COC1=O)C1=C(O)COC1=O
inactive: [1] 98 % of control | [2] 100 % of control | [3] 98 % of control

O=C(NC1COB(c2ccccc2)OC1c1ccc([N+](=O)[O-])cc1)C(Cl)Cl (stereo not given)
inactive: [18] 97 % of control | [19] 97 % of control | [20] 99 % of control

O=C(Nc1ccc(Cl)cc1)Nc1nnc2nc(C3(c4nc5nnc(NC(=O)Nc6ccc(Cl)cc6)n5[nH]c4=O)CCCC3=O)c(=O)[nH]n12
inactive: [21] 95 % of control | [1] 91 % of control and 95 % of control | [3] 86 % of control

COc1cccc2c1C(=O)c1c(O)c3c(c(O)c1C2=O)CC(O)(C(C)=O)CC3O (stereo not given)
inactive: dose: 6.25 mg/kg/injection, schedule: Q01DX009 (ip), vehicle: other 100 % of control | dose: 12.5 mg/kg/injection, schedule: Q01DX009 (ip), vehicle: other 92 % of control | dose: 25.0 mg/kg/injection, schedule: Q01DX009 (ip), vehicle: other 91 % of control | dose: 50.0 mg/kg/injection, schedule: Q01DX009 (ip), vehicle: other 91 % of control | dose: 100.0 mg/kg/injection, schedule: Q01DX009 (ip), vehicle: other 119 % of control | dose: 200.0 mg/kg/injection, schedule: Q01DX009 (ip), vehicle: other 92 % of control | dose: 400.0 mg/kg/injection, schedule: Q01DX009 (ip), vehicle: other 98 % of control

CCOc1cc2c(cc1C(C)c1ccc(O)c(OC)c1)OCO2 (stereo not given)
inactive: dose: 50.0 mg/kg/injection, schedule: Q01DX005 (ip), vehicle: distilled water + Tween-80 99 % of control | dose: 100.0 mg/kg/injection, schedule: Q01DX005 (ip), vehicle: distilled water + Tween-80 101 % of control | dose: 200.0 mg/kg/injection, schedule: Q01DX005 (ip), vehicle: distilled water + Tween-80 104 % of control

CCc1cccc(C)c1NC(=O)C(=O)C(C#N)c1ccc(C)cc1 (stereo not given)
inactive: [22] 99 % of control | [23] 93 % of control | [24] 103 % of control

C1=CC(=C(c2ccccc2)c2ccccc2)C=C1
inactive: [15] 98 % of control | dose: 50.0 mg/kg/injection, schedule: Q01DX009 (ip), vehicle: saline with Tween-80 107 % of control | [16] 100 % of control | [7] 104 % of control | [17] 101 % of control | [8] 102 % of control | dose: 400.0 mg/kg/injection, schedule: Q01DX009 (ip), vehicle: saline with Tween-80 102 % of control

Nc1c(CC(=O)O)cccc1C(=O)c1ccccc1
inactive: [9] 87 % of control | [10] 92 % of control

c1ccc(Nc2ccc(CN3CCCC3)cc2)cc1
inactive: [18] 107 % of control | [19] 107 % of control | [20] 107 % of control

CC(C)(C)C1=CC(=CC=C2C=CN(CCO)C=C2)C=C(C(C)(C)C)C1=O
inactive: dose: 7.5 mg/kg/injection, schedule: Q01DX005 (ip), vehicle: saline with Tween-80 105 % of control | dose: 15.0 mg/kg/injection, schedule: Q01DX005 (ip), vehicle: saline with Tween-80 98 % of control | [21] 104 % of control

N#CC(COC(=O)c1ccccc1)OC(=O)c1ccccc1 (stereo not given)
inactive: [22] 91 % of control | [23] 95 % of control | [24] 86 % of control

CC(C)NNC(=O)c1ccncc1
inactive: dose: 12.5 mg/kg/injection, schedule: Q01DX009 (ip), vehicle: saline 96 % of control | dose: 25.0 mg/kg/injection, schedule: Q01DX009 (ip), vehicle: saline 101 % of control | [9] 103 % of control | [10] 96 % of control | [11] 98 % of control | dose: 400.0 mg/kg/injection, schedule: Q01DX009 (ip), vehicle: saline 64 % of control

N=C(N)c1ccc(/C=C\C=C/c2cc3cc(C(=N)N)ccc3o2)cc1
inactive: dose: 1.56 mg/kg/injection, schedule: Q04DX003 (ip), vehicle: saline with Tween-80 107 % of control | dose: 3.12 mg/kg/injection, schedule: Q04DX003 (ip), vehicle: saline with Tween-80 122 % of control | dose: 3.12 mg/kg/injection, schedule: Q04DX003 (ip), vehicle: saline 115 % of control | dose: 12.5 mg/kg/injection, schedule: Q04DX003 (ip), vehicle: saline 124 % of control

O=C1NC2(CCCCC2)C(=O)N1CCCN1C(=O)NC2(CCCCC2)C1=O
inactive: [1] 107 % of control | [2] 102 % of control | [3] 101 % of control

OCc1cnccc1Cl
inactive: dose: 60.0 mg/kg/injection, schedule: Q01DX005 (ip), vehicle: saline 95 % of control | dose: 120.0 mg/kg/injection, schedule: Q01DX005 (ip), vehicle: saline 100 % of control

CCCCC(CC)C(=O)OC(C)C(N)=O (stereo not given)
inactive: [12] 105 % of control | [13] 101 % of control | [14] 101 % of control

Source: PubChem BioAssay AID330 (DTP/NCI, 2004)
